These results are taken from PubChem BioAssay (NCI).

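Interpolation was linear, between the two tested concentrations surrounding the appropriate level; five concentrations were tested over 48 hours in 96-well plates. At the GI50, growth is halved. TGI is the concentration that stops growth completely.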

Holding throughout (assay): NCI tumour cell line growth inhibition, 48 h
Assay [1] has as its system DMS 273 small cell lung.
For assay [2], the system named is LXFL 529 NSCLC.
Assay [3] deals with M19-MEL melanoma.
Assay [4] deals with RXF-631 renal.
Assay [5] concerns XF 498 CNS.
Assay [6] concerns MCF7 breast.
For assay [7], the system named is MDA-MB-231 breast.
The test system of assay [8] is MDA-N.
In assay [9] the test system is PC-3 prostate.

Consider `CC(C)(C)c1cc2c(OP(c3ccccc3)c3ccccc3)c(c1)Cc1cc(C(C)(C)C)cc(c1OP(c1ccccc1)c1ccccc1)Cc1cc(C(C)(C)C)cc(c1OP(c1ccccc1)c1ccccc1)Cc1cc(C(C)(C)C)cc(c1OP(c1ccccc1)c1ccccc1)C2`, for which the GI50 in assay [1], in assay [2] and in [3] was greater than 50 µM each time. Also, the TGI in assay [1], in assay [2] and in [3] was greater than 50 µM throughout.

With `COc1ccc2c3c([nH]c2c1[N+](=O)[O-])C(C)N(C(=O)/C=C/c1ccccc1)CC3` (stereo unspecified), the TGI in assay [1] was 7.77 µM; in assay [2], greater than 100 µM.

As for `[O-]c1c(-c2ccccc2)[se]c(-c2ccccc2)[n+]1-c1ccccc1`, the TGI in [1] was 37.1 µM; in assay [2], 27.8 µM; in [3], 21.3 µM; in [4] it was 29.9 µM.

With `C=CC1(C)/C(=N\O)C(C)(CC)C(=O)N1O` (stereo unspecified), the TGI in assay [1], in assay [2], in assay [3], in assay [4] and in assay [5] was greater than 100 µM each time.

As to `O=S(O)CCCCSSCCCCS(=O)(O)=S`, the TGI is greater than 100 µM in [1]; 61.2 µM in assay [2]; greater than 100 µM in assay [3]; greater than 100 µM in assay [4]; 33.2 µM in assay [5].

For `COc1cccc(C(=O)O)c1Cc1cccc2ccccc12`, the TGI in assay [1], in assay [2] and in [3] was greater than 100 µM each time.

Take `NC(N)=NS(=O)(=O)c1ccc(NC(=O)c2ccc(Cl)c3c(Nc4ccc(S(=O)(=O)N=C(N)N)cc4)c4ccccc4nc23)cc1`: the TGI in [1], in assay [2], in assay [3] and in [4] was greater than 100 µM in each case.

`CP(=O)(CCSc1ccccc1)c1ccccc1` (stereo unspecified): the TGI in assay [1], in [2], in assay [3] and in [5] was greater than 100 µM each time.

In the case of `CC(=O)C1C(=O)C(=O)N(c2ccc(Cl)cc2C)C1=O` (stereo unspecified), the TGI in assay [2], in [3] and in [4] was greater than 100 µM each time.

On to `CCOc1ccccc1N=C(NC(=O)CC)SC`, for which the GI50 in assay [1], in assay [2], in assay [3] and in assay [4] was greater than 100 µM each time. Also, the TGI in assay [1], in assay [2], in [3] and in assay [4] was greater than 100 µM in each case.

On to `C/C(=C\c1ccccc1)C(O)S(=O)(=O)O` (stereo unspecified), for which the TGI in assay [1], in [2] and in assay [3] was greater than 100 µM each time.

As for `CCOC(=O)NC(=O)c1cn(-c2ccc(CCOC(=O)CCCCCCCCC(=O)OCCc3ccc(-n4cc(C(=O)NC(=O)OCC)c(=O)[nH]c4=O)cc3)cc2)c(=O)[nH]c1=O`, the TGI in assay [2], in assay [3], in assay [4] and in assay [5] was greater than 100 µM throughout.

`NC(CCc1nc(-c2ccccc2)cs1)C(=O)O` (stereo unspecified): the TGI in assay [1], in [2] and in assay [3] was greater than 100 µM in each case.

For `CCCCC/C=C1\CCC(CN2CCOCC2)C1=O` (stereo unspecified), the TGI is 16.6 µM in assay [2]; greater than 54.8 µM in assay [3]; 7.73 µM in assay [6]; greater than 23.2 µM in assay [7]; 25.4 µM in assay [8]; 30.9 µM in assay [9]. In addition, the results for the TGI in [4] and in [5] were 44.9 µM and 31.8 µM, respectively.

On to `COc1cc(C(C)c2cc3c(cc2OCCOCCOc2cc4c(cc2C(C)c2cc(OC)c(OC)c(OC)c2)OCO4)OCO3)cc(OC)c1OC` (stereo unspecified), for which the TGI is greater than 10 µM in assay [1]; greater than 100 µM in assay [2]; greater than 100 µM in assay [3]; greater than 100 µM in assay [4]; greater than 10 µM in assay [5]. The GI50 in [2], in assay [3] and in [4] was greater than 100 µM each time.

Turning to `CC(C)[C@H](COC(C)(C)C)N=CN1CSc2ccccc21`, the TGI in assay [1] was 37.8 µM; in assay [2], greater than 100 µM; in assay [3], greater than 100 µM; in [4] it was greater than 100 µM; in [5], 47.8 µM.

In the case of `Cc1cc(Cl)ccc1N1C(=O)C(=O)C(c2nc3ccccc3s2)/C(=N\NC(=O)c2ccccc2O)C1=O` (stereo unspecified), the TGI in assay [1], in [2], in [3] and in [4] was greater than 100 µM throughout.

As for `C#Cc1cccc(N2C(=O)CC(=P(c3ccccc3)(c3ccccc3)c3ccccc3)C2=O)c1`, the TGI in assay [2] was greater than 100 µM; in assay [3] it was greater than 100 µM; in assay [5], 38.8 µM.

Regarding `Cc1ccc(S(=O)(=O)NC(C)C(=O)O)cc1` (stereo unspecified), the TGI in assay [1], in assay [2], in assay [3], in assay [4] and in assay [5] was greater than 100 µM each time.

For `C=CCCC12CCCC(=O)C1Sc1ccc3ccccc3c12` (stereo unspecified), the TGI in [1] was 23.6 µM; in assay [2] it was 33.2 µM; in assay [3], greater than 100 µM; in assay [4], 34 µM.
